The values below come from patent publication US5723494A, “Derivatives of glutamic and aspartic acids, a method of preparing them, and their use as drugs for enhancing memory and learning” (priority 1993, dated 1998).

Test [1] is described as follows: Antiamnesic activity in the mouse (step-down passive avoidance, amnesia induced by ECS). It counts as in vivo, mouse (CD1 male).
Test [2] in a line: Memory-enhancement activity in the passive avoidance test in the rat. It is filed as in vivo, rat (male Wistar).
Test [3] can be described thus: Antagonism of the amnesic effect induced by scopolamine in the passive avoidance test in the rat. It is filed as in vivo. Conditions: for % Effect vs controls / Latency (STL): FS + SCOP. The method, then:
4) Antagonism of the amnesic effect induced by scopolamine in the "passive avoidance" test in the rat.
The shuttle box equipment was used for passive avoidance as described in Experiment 2 with the following modifications: the compounds (or physiological solutions for the control group) were administered intraperitoneally (IP) 45 min before the training, whereas scopolamine (SCOP) was administered 30 min before the training. The foot shock (FS) consisted of a 0.2 mA shock of 5 sec duration.
The retest to determine memory was executed 24 h after the training. In each individual experiment, the following groups were used: a control group (-FS), a control group (+FS), a control group (FS+SCOP), 3 treatment groups with different doses of the product under test (FS+SCOP).

Where [4] appears, read: Mus musculus, po, 24 h, read-out: Reversal of the amnesia (% vs controls), as the increase in the Step Down Latency.
[5] abbreviates: Rattus norvegicus, ip, 96 h, read-out: % variation vs controls (FS) in step through latency.

On to `Nc1c2c(nc3ccccc13)CCCC2` [Tacrine, reference compound], for which, in test [1] (setting [4]), the change in vivo at 0.1 mg/kg is 10%, the change in vivo at 1 mg/kg stood at 9%, the change in vivo at 3 mg/kg was 20% and the change in vivo at 10 mg/kg was 9%. Also, in test [1] (OS, mouse), the “Antiamnesic activity (in words)” value was “inactive”. Further, in test [2] (setting [5]), the change in vivo at 0.1 mg/kg is 7%, the change in vivo at 1 mg/kg came out at 6% and the change in vivo at 10 mg/kg is 12%. Besides, the “Activity in increasing the avoidance time (in words)” value in test [2] (rat, IP, retest on the 4th day) was “inactive”. For the same compound, in test [3] (0.3 mg/kg IP), the “% Effect vs controls” value worked out at 0% and the “Latency (STL)” value turned out to be 59.7 s. In test [3] (1 mg/kg IP), the “% Effect vs controls” value came out at 41.1% and the “Latency (STL)” value came out at 73.1 s. Moreover, in test [3] (3 mg/kg IP), the “% Effect vs controls” value is listed as 49.2% and the “Latency (STL)” value was 75.3 s. In test [3] (10 mg/kg IP), the “% Effect vs controls” value came out at 64.8% and the “Latency (STL)” value stood at 79.5 s. Further, in test [3] (Rattus norvegicus, ip, 24 h, read-out: ID50 (dose antagonizing the amnesic effect of scopolamine by 50%)), the ED50 turned out to be 3.4 mg/kg.
